Test results reported in the CheMixHub ionic liquid set.
Where “and” joins values, the source holds several entries; their conditions need not be identical. Equal entries are not always repeated.

Experiment: xn = mol fraction of the nth substance listed
Conditions: 298.15 K, 101 kPa, frequency 0.001 MHz

CCCCCCCCCCCCCCCC[N+](C)(C)C.[Br-] + CCCCCCCCCCCCOS(=O)(=O)[O-].[Na+] + O
Conditions | electrical conductivity
x2 = 0, x1 = 3e-08 | 0.000332 S/m
x2 = 0, x1 = 1.09e-06 | 0.001 S/m
x2 = 0, x1 = 2.34e-06 | 0.00165 S/m
x2 = 0, x1 = 3.39e-06 | 0.00255 S/m
x2 = 0, x1 = 4.43e-06 | 0.00305 S/m
x2 = 0, x1 = 5.57e-06 | 0.00366 S/m
x2 = 0, x1 = 6.72e-06 | 0.00441 S/m
x2 = 0, x1 = 7.97e-06 | 0.00511 S/m
x2 = 0, x1 = 8.91e-06 | 0.00577 S/m
x2 = 0, x1 = 1.12e-05 | 0.00697 S/m
x2 = 0, x1 = 1.213e-05 | 0.00757 S/m
x2 = 0, x1 = 1.307e-05 | 0.00823 S/m
x2 = 0, x1 = 1.411e-05 | 0.00873 S/m
x2 = 0, x1 = 1.526e-05 | 0.00943 S/m
x2 = 0, x1 = 1.63e-05 | 0.00978 S/m
x2 = 0, x1 = 1.734e-05 | 0.0102 S/m
x2 = 0, x1 = 1.922e-05 | 0.0105 S/m
x2 = 0, x1 = 1.995e-05 | 0.0108 S/m
x2 = 0, x1 = 2.172e-05 | 0.0111 S/m
x2 = 0, x1 = 2.276e-05 | 0.0113 S/m
x2 = 0, x1 = 2.443e-05 | 0.0115 S/m
x2 = 0, x1 = 2.599e-05 | 0.0117 S/m
x2 = 0, x1 = 2.734e-05 | 0.012 S/m
x2 = 0, x1 = 2.859e-05 | 0.0122 S/m
x2 = 1e-08, x1 = 1e-08 | 0.000339 S/m and 0.000404 S/m
x2 = 1e-08, x1 = 3e-08 | 0.000436 S/m
x2 = 1e-08, x1 = 4e-08 | 0.000343 S/m
x2 = 1e-08, x1 = 1.2e-07 | 0.000394 S/m
x2 = 2e-08, x1 = 2e-08 | 0.000534 S/m
x2 = 2e-08, x1 = 3e-08 | 0.000686 S/m and 0.000765 S/m
x2 = 2e-08, x1 = 4e-08 | 0.000522 S/m and 0.000583 S/m and 0.000801 S/m
x2 = 2e-08, x1 = 5e-08 | 0.000647 S/m and 0.000697 S/m
x2 = 2e-08, x1 = 7e-08 | 0.000383 S/m
x2 = 2e-08, x1 = 8e-08 | 0.000422 S/m
x2 = 2e-08, x1 = 1.5e-07 | 0.000412 S/m
x2 = 2e-08, x1 = 1.9e-07 | 0.000438 S/m
x2 = 3e-08, x1 = 1e-08 | 0.000594 S/m
x2 = 3e-08, x1 = 4e-08 | 0.000836 S/m
x2 = 3e-08, x1 = 5e-08 | 0.000883 S/m
x2 = 3e-08, x1 = 6e-08 | 0.000733 S/m
x2 = 3e-08, x1 = 7e-08 | 0.000772 S/m
x2 = 3e-08, x1 = 1.1e-07 | 0.000459 S/m
x2 = 3e-08, x1 = 2.3e-07 | 0.000467 S/m
x2 = 3e-08, x1 = 3e-07 | 0.000493 S/m
x2 = 4e-08, x1 = 2e-08 | 0.000416 S/m and 0.00028 S/m
x2 = 4e-08, x1 = 6e-08 | 0.000919 S/m
x2 = 4e-08, x1 = 8e-08 | 0.000812 S/m
x2 = 4e-08, x1 = 1e-07 | 0.000848 S/m
x2 = 4e-08, x1 = 1.7e-07 | 0.000541 S/m
x2 = 4e-08, x1 = 3.6e-07 | 0.000522 S/m
x2 = 5e-08, x1 = 1e-08 | 0.000679 S/m
x2 = 5e-08, x1 = 7e-08 | 0.000941 S/m
x2 = 5e-08, x1 = 1.2e-07 | 0.000887 S/m
x2 = 5e-08, x1 = 4.3e-07 | 0.000555 S/m
x2 = 6e-08, x1 = 2e-08 | 0.000797 S/m
x2 = 6e-08, x1 = 6e-08 | 0.000747 S/m
x2 = 6e-08, x1 = 9e-08 | 0.000991 S/m
x2 = 6e-08, x1 = 2.4e-07 | 0.000642 S/m
x2 = 7e-08, x1 = 1.1e-07 | 0.00101 S/m
x2 = 7e-08, x1 = 1.5e-07 | 0.000924 S/m
x2 = 7e-08, x1 = 2.9e-07 | 0.000707 S/m
x2 = 8e-08, x1 = 1e-08 | 0.000628 S/m
x2 = 8e-08, x1 = 2e-08 | 0.000891 S/m
x2 = 8e-08, x1 = 3e-08 | 0.00034 S/m
x2 = 8e-08, x1 = 5e-08 | 0.00106 S/m
x2 = 8e-08, x1 = 1.9e-07 | 0.00096 S/m
x2 = 8e-08, x1 = 3.2e-07 | 0.000765 S/m
x2 = 9e-08, x1 = 6e-08 | 0.00125 S/m
x2 = 9e-08, x1 = 1.3e-07 | 0.00105 S/m
x2 = 9e-08, x1 = 3.7e-07 | 0.000826 S/m
x2 = 1e-07, x1 = 6e-08 | 0.00139 S/m
x2 = 1e-07, x1 = 1.5e-07 | 0.00109 S/m
x2 = 1.1e-07, x1 = 7e-08 | 0.00148 S/m
x2 = 1.1e-07, x1 = 1.1e-07 | 0.001 S/m
x2 = 1.2e-07, x1 = 3e-08 | 0.00103 S/m
x2 = 1.2e-07, x1 = 5e-08 | 0.000383 S/m
x2 = 1.2e-07, x1 = 8e-08 | 0.00152 S/m
x2 = 1.2e-07, x1 = 1.7e-07 | 0.00113 S/m
x2 = 1.4e-07, x1 = 1.4e-07 | 0.00108 S/m
x2 = 1.4e-07, x1 = 2.1e-07 | 0.00116 S/m
x2 = 1.5e-07, x1 = 4e-08 | 0.00112 S/m
x2 = 1.5e-07, x1 = 6e-08 | 0.000443 S/m
x2 = 1.5e-07, x1 = 1e-07 | 0.00161 S/m
x2 = 1.6e-07, x1 = 2e-08 | 0.000934 S/m
x2 = 1.6e-07, x1 = 7e-08 | 0.000477 S/m
x2 = 1.7e-07, x1 = 1.1e-07 | 0.00167 S/m
x2 = 1.8e-07, x1 = 1.8e-07 | 0.00116 S/m
x2 = 1.8e-07, x1 = 2.7e-07 | 0.0012 S/m
x2 = 1.9e-07, x1 = 2e-08 | 0.00106 S/m
x2 = 2e-07, x1 = 9e-08 | 0.000571 S/m
x2 = 2e-07, x1 = 1.3e-07 | 0.00173 S/m
x2 = 2.2e-07, x1 = 5e-08 | 0.00121 S/m
x2 = 2.2e-07, x1 = 2.2e-07 | 0.00125 S/m
x2 = 2.3e-07, x1 = 3e-08 | 0.00115 S/m
x2 = 2.6e-07, x1 = 1.7e-07 | 0.00178 S/m
x2 = 2.6e-07, x1 = 2.6e-07 | 0.00135 S/m
x2 = 2.8e-07, x1 = 3e-08 | 0.00131 S/m
x2 = 3e-07, x1 = 7e-08 | 0.00125 S/m
x2 = 3e-07, x1 = 1.3e-07 | 0.000632 S/m
x2 = 3e-07, x1 = 2e-07 | 0.00186 S/m
x2 = 3e-07, x1 = 3e-07 | 0.00143 S/m
x2 = 3.1e-07, x1 = 3e-08 | 0.00138 S/m
x2 = 3.4e-07, x1 = 4e-08 | 0.00144 S/m
x2 = 3.4e-07, x1 = 3.4e-07 | 0.00147 S/m
x2 = 3.6e-07, x1 = 4e-08 | 0.00156 S/m
x2 = 3.7e-07, x1 = 2.4e-07 | 0.00196 S/m
x2 = 4e-07, x1 = 4e-08 | 0.00168 S/m
x2 = 4.1e-07, x1 = 1e-07 | 0.0013 S/m
x2 = 4.1e-07, x1 = 1.8e-07 | 0.000659 S/m
x2 = 4.1e-07, x1 = 2.7e-07 | 0.00203 S/m
x2 = 4.6e-07, x1 = 3.1e-07 | 0.00208 S/m
x2 = 4.7e-07, x1 = 5e-08 | 0.00179 S/m
x2 = 5.1e-07, x1 = 2.2e-07 | 0.000678 S/m
x2 = 5.1e-07, x1 = 3.4e-07 | 0.0022 S/m
x2 = 5.4e-07, x1 = 6e-08 | 0.0019 S/m
x2 = 5.6e-07, x1 = 3.7e-07 | 0.00228 S/m
x2 = 5.8e-07, x1 = 1.5e-07 | 0.00133 S/m
x2 = 6.1e-07, x1 = 7e-08 | 0.00201 S/m
x2 = 6.6e-07, x1 = 2.8e-07 | 0.000706 S/m
x2 = 6.7e-07, x1 = 7e-08 | 0.00214 S/m
x2 = 7.9e-07, x1 = 3.4e-07 | 0.000733 S/m
x2 = 8.2e-07, x1 = 2e-07 | 0.00138 S/m
x2 = 9e-07, x1 = 3.9e-07 | 0.000778 S/m
x2 = 1.05e-06, x1 = 2.6e-07 | 0.00143 S/m
